This passage reports EC50 results from US10508086B2 (CANCER RESEARCH TECHNOLOGY LIMITED, priority 2014, dated 2019).

Chain of Human Full Length PARG (Q86W56 whole entry): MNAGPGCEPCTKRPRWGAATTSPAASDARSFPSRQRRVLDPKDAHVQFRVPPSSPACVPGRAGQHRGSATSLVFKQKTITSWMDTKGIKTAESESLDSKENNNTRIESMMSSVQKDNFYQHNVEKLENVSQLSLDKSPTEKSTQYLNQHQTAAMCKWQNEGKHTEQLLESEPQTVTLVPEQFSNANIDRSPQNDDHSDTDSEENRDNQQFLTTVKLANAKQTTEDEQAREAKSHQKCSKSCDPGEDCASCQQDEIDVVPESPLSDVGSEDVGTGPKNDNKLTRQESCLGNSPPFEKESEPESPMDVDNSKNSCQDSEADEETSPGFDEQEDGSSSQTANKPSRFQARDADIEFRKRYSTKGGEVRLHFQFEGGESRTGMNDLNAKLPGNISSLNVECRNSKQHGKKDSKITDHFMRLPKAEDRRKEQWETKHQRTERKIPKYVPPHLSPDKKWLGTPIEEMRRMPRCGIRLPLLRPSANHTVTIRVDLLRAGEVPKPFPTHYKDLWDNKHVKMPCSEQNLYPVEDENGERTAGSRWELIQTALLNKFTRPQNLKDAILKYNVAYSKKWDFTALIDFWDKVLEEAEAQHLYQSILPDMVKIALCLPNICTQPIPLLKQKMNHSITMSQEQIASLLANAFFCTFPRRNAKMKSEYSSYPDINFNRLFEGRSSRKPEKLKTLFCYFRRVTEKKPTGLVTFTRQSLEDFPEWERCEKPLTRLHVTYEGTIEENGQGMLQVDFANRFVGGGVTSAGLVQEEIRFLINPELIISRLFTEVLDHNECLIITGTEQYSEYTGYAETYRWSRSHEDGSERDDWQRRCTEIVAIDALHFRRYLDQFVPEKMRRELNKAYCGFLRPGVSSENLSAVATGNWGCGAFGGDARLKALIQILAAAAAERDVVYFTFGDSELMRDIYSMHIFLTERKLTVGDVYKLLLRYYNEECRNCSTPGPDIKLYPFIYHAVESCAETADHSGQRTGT

The assay has as its target Human Full Length PARG (Homo sapiens (Human), UniProt Q86W56). Nature of the assay: PARG in vitro enzyme assay (TR-FRET). The assay is classed as biochemical. To be noted: read-out: PARG_EC50_ENZYME. The method, then: PARG In vitro assays were conducted in a total volume of 15 ul in a standard 384 well format. 5 ul of Human Full Length PARG (Produced internally by Astra Zeneca), used at a final reaction concentration of […], was added to 5 ul of Ribosylated PARP substrate (also produced internally by Astra Zeneca) at final reaction concentration of 4.5 nM in assay buffer (50 mM Tris pH7.4, 0.1 mg/ml BSA, 3 mM EDTA, 0.4 mM EGTA, 1 mM DTT, 0.01% Tween 20, 50 mM KCl). The reaction was incubated at room temperature for 10 minutes and then 5 ul detection reagent was added. Detection Reagent consists of 42 nM MAb Anti-6HIS XL665 (CisBio: 61 HISXLB) and 2.25 nM Streptavidin Europium Cryptate (CisBio: 610SAKLB), both at 3× working stock concentrations (final concentrations of 14 nM and 0.75 nM respectively), in a detection buffer of 50 mM Tris pH7.4, BSA at 0.1 mg/ml and KF at 100 mM. Following incubation at room temperature for 60 minutes in the dark, TR-FRET signal was measured at Ex 340 and Em 665 and Em 620. A ratio was calculated as Em665/EM620×104 for each well and used to calculate percent inhibition for test compounds.
As for `Cc1nc(C)c(Cn2c(=O)n(-c3cccnn3)c3cc(S(=O)(=O)NC4(C)CC4)ccc32)s1` [Example 109], the EC50 is 878 nM.
For the molecule `Cc1nc(C)c(Cn2c(=O)n(-c3nncs3)c3cc(S(=O)(=O)NC4(C)CC4)ccc32)s1` [Example 110], the EC50 turned out to be 234 nM.
For the molecule `Cc1nc(C)c(Cn2c(=O)n(C3=CCCC3)c3cc(S(=O)(=O)NC4(C)CC4)ccc32)s1` [Example 113], the EC50 turned out to be 632 nM.
In the case of `Cc1nnc(-n2c(=O)n(C)c3c(F)cc(S(=O)(=O)NC4(C)CC4)cc32)s1` [Example 114, 7-Fluoro-1-methyl-N-(1-methylcyclopropyl)-3-(5-methyl-1,3,4-thiadiazol-2-yl)-2-oxo-benzimidazole-5-sulfonamide], the EC50 was 679 nM.
The result for `Cc1nnc(-n2ccc3ccc(S(=O)(=O)NC4(C)CC4)cc32)s1` [Example 115, N-(1-Methylcyclopropyl)-1-(5-methyl-1,3,4-thiadiazol-2-yl)indole-6-sulfonamide] reads 2320 nM; that for `Cc1nnc(-n2c(Cc3cnn(C)c3)nc3ccc(S(=O)(=O)NC4(C)CC4)cc32)s1` [Example 120], 867 nM.
For the molecule `Cc1nnc(-n2c(CCc3cnn(C)c3)nc3ccc(S(=O)(=O)NC4(C)CC4)cc32)s1` [Example 121], the EC50 was 1020 nM.
For the molecule `Cc1nnc(-n2c(C)nc3ccc(S(=O)(=O)NC4(C)CC4)cc32)s1` [Example 122], the EC50 turned out to be 1530 nM.
Turning to `Cc1nnc(-n2c(=O)n(C)c3c(C(F)(F)F)cc(S(=O)(=O)NC4(C)CC4)cc32)s1` [Example 123, 1-Methyl-N-(1-methylcyclopropyl)-3-(5-methyl-1,3,4-thiadiazol-2-yl)-2-oxo-7-(trifluoromethyl)benzimidazole-5-sulfonamide], the EC50 turned out to be 734 nM.
`CC(=O)NCc1nc2ccc(S(=O)(=O)NC3(C)CC3)cc2n1-c1nnc(C)s1` [Example 124]: the EC50 was 7680 nM.
The result for `Cc1nnc(-n2c(CCN)nc3ccc(S(=O)(=O)NC4(C)CC4)cc32)s1` [Example 125] reads 2560 nM; that for `Cc1nnc(-n2cc(Cc3ccccc3)c3ccc(S(=O)(=O)NC4(C)CC4)cc32)s1` [Example 126, 3-Benzyl-N-(1-methylcyclopropyl)-1-(5-methyl-1,3,4-thiadiazol-2-yl)indole-6-sulfonamide], 4280 nM; that for `Cc1nnc(-n2cc(Cc3ccc(F)cc3)c3ccc(S(=O)(=O)NC4(C)CC4)cc32)s1` [Example 127, 3-[(4-Fluorophenyl)methyl]-N-(1-methylcyclopropyl)-1-(5-methyl-1,3,4-thiadiazol-2-yl)indole-6-sulfonamide], 6050 nM.
For the molecule `Cc1nnc(-n2cc(CC3CC3)c3ccc(S(=O)(=O)NC4(C)CC4)cc32)s1` [Example 128, 3-(Cyclopropylmethyl)-N-(1-methylcyclopropyl)-1-(5-methyl-1,3,4-thiadiazol-2-yl)indole-6-sulfonamide], the EC50 was 2110 nM.
The result for `CCOC(=O)n1cc(Cc2sc(C)nc2C)c2ccc(S(=O)(=O)NC3(C)CC3)cc21` [Example 132, Ethyl 3-[(2,4-dimethylthiazol-5-yl)methyl]-6-[(1-methylcyclopropyl)sulfamoyl]indole-1-carboxylate] reads 7420 nM; that for `Cc1nnc(-n2c(=O)n(CCCN(C)C)c3ccc(S(=O)(=O)NC4(C)CC4)cc32)o1` [Example 133], 1140 nM.
Regarding `COCCn1c(=O)n(-c2nnc(C)o2)c2cc(S(=O)(=O)NC3(C)CC3)ccc21` [Example 134], the EC50 is 910 nM.
Regarding `Cc1nnc(-n2c(=O)n(CC3CCCN(C)C3)c3ccc(S(=O)(=O)NC4(C)CC4)cc32)s1` (stereo not drawn) [Example 136], the EC50 was determined as 567 nM.
Take `Cc1nnc(-n2c(=O)n(CCN(C)C)c3ccc(S(=O)(=O)NC4(C)CC4)cc32)o1` [Example 137]: the EC50 is 2280 nM.
`Cc1nnc(-n2c(=O)n(CC3CCCCN3C)c3ccc(S(=O)(=O)NC4(C)CC4)cc32)o1` (stereo not drawn) [Example 138]: the EC50 turned out to be 1020 nM.
Turning to `Cc1nnc(-n2c(=O)n(CC3CCCN(C)C3)c3ccc(S(=O)(=O)NC4(C)CC4)cc32)o1` (stereo not drawn) [Example 139], the EC50 worked out at 1150 nM.
